Source: patent US20110306606A1, “NOVEL 2,6-SUBSTITUTED-3-NITROPYRIDINE DERIVATIVE, METHOD FOR PREPARING SAME, AND PHARMACEUTICAL COMPOSITION INCLUDING SAME” (priority 2008, published 2011)
Like-named read-outs stand apart in the source and are kept apart here.

Experiments:
[1] = tested on: formation of osteoclasts in co-culture of bone marrow cells and osteoblasts; assay: Osteoclastogenesis inhibition via co-culture system (TRAP staining); format: cell-based, mice; conditions: 1 μM compound, 7 days co-culture, TRAP-positive multinucleated osteoclasts vs vehicle control; for inhibition at 1 µM: Mus musculus, Osteoclast, 168 h
Description: Osteoclastogenesis inhibitory effects of the compounds of the present invention were evaluated via a co-culture system (Reference: Endocrinology 137(1996), 2187 to 2190, E. Jimi et al.). A specific experimental method is as follows.
1) Preparation of Bone Marrow Cells and Osteoblasts
Femora and tibia were aseptically dissected from 6 to 8-week-old male ddY mice to harvest bone marrow cells by a conventional method using a syringe. In brief, tissues were removed from the dissected bone, the bone ends were cut off with scissors, and the bone marrow was isolated by pushing a medium-containing syringe (23G) against the one end of the cut bone. The isolated bone marrow was subjected to repeated piston movement of a syringe such that single cells were obtained (Reference: Endocrinology 123(1988), 2600 to 2602, Takahashi et al.). After removal of red blood cells within the bone marrow, the bone marrow cells recovered by centrifugation were placed in an α-MEM supplemented with 10% fetal bovine serum (FBS), followed by counting of nucleated cells and then were immediately used for a co-culture system.
2) Osteoclastogenesis Inhibition Experiment Via Co-Culture System
As the medium used for a co-culture system, a differentiation medium with the addition of differentiation factors 1α,25-dihydroxyvitamin D3 (10^−8M) and dexamethasone (10^−8M) to a-MEM supplemented with 10% FBS was used for the induction of osteoclastogenesis. First, the compounds dissolved in dimethyl sulfoxide (DMSO) at a concentration of 1 mM were diluted to 2 μM using the above-mentioned differentiation medium. As a vehicle control group, 0.2% (v/v) DMSO was added to the medium. 100 μL/well of each medium was added to 96-well plates. In addition, the above prepared bone marrow cells and osteoblasts were plated onto 96-well plates at a density of 1×10^5 cells/50 μL/well and 3×10^3 cells/50 μL/well, respectively. The total volume/well was 200 μL and the final compound concentration was 1 μM. The control group was 0.1% DMSO. The cells were cultured with exchange of the culture media with fresh media containing differentiation factors and test materials at an interval of 2 to 3 days.
7 days after culturing of cells, the formation of multinucleated osteoclasts was confirmed by microscopic examination, the medium was removed from the wells and then the cells were fixed in a 10% phosphate-buffered formalin solution. The degree of formation of mature osteoclasts was measured taking advantage of the characteristics of osteoclasts showing a positive reaction to a tartrate-resistant acid phosphatase (TRAP) staining solution. The TRAP staining solution was prepared in a manner such that naphthol AS-MS phosphate as a substrate and a coloring agent (Fast Red Violet LB salt) were dissolved in N,N-dimethylformamide, and a 0.1N NaHCO3 buffer solution containing 50 mM of tartaric acid was added thereto. Among the TRAP-positive cells under a light microscope, multinucleated osteoclasts having 6 to 7 nuclei were regarded as mature osteoclasts.
The degree of inhibition of osteoclastogenesis was calculated according to the following equation 1. The results are summarized in Table 27 below (Experiments were carried out for 4 wells/experimental group (n=4), and the results are given in terms of mean±standard deviation)
Inhibition of osteoclastogenesis(%)=(1−numbers of osteoclasts observed in experimental group/numbers of osteoclasts observed in vehicle control group)×100(%) [Equation 1]

[2] = tested on: Osteoblasts (Calvarial cells); conditions: ICR, mouse, 72 h, 1 μM
[3] = tested on: Osteoblasts (Calvarial cells); assay: Cytotoxicity test (MTT); conditions: 1 μM compound, 72 hours, in comparison with vehicle control

Row | Compound | inhibition at 1 µM [1] [%] | Cell viability (%) Calvarial cell [2] [%] | Osteoclastogenesis inhibition (%) 1 μM [1] [%] | Cell viability (%) Calvarial cell [3] [%]
1 | Cc1ccc(Nc2nc(-n3ccnc3C(C)C)ccc2[N+](=O)[O-])cc1 [Compound 7, 2-(4-methylphenylamino)-6-[(2-isopropyl)imidazol-1-yl]-3-nitropyridine] | 100 | 103 | – | –
2 | Cc1ccc(Nc2nc(NCCc3cccnc3)ccc2[N+](=O)[O-])cc1 [Compound 10, 2-(4-methylphenylamino)-6-[2-(3-pyridyl)ethylamino]-3-nitropyridine] | 64 | 116 | – | –
3 | Cc1ccc(Nc2nc(N3CCNCC3)ccc2[N+](=O)[O-])cc1 [Compound 12, 2-(4-methylphenylamino)-6-(piperazin-1-yl)-3-nitropyridine] | 63 | 103 | – | –
4 | COc1ccc(Nc2nc(N3CCC(N)CC3)ccc2[N+](=O)[O-])cc1 [Compound 28, 2-(4-methoxyphenylamino)-6-(4-aminopiperidino)-3-nitropyridine] | 88 | 89 | – | –
5 | CC(C)(C)c1ccc(Nc2nc(N3CCNCC3)ccc2[N+](=O)[O-])cc1 [Compound 42, 2-[4-(t-butyl)phenylamino]-6-(piperazin-1-yl)-3-nitropyridine] | 96 | 103 | – | –
6 | CSc1ccc(Nc2nc(NCCCn3ccnc3)ccc2[N+](=O)[O-])cc1 [Compound 55, 2-[4-(methylsulfanyl)phenylamino]-6-[(3-imidazol-1-yl)propylamino]-3-nitropyridine] | 98 | 105 | – | –
7 | CCCCc1ccc(Nc2nc(NCCCn3ccnc3)ccc2[N+](=O)[O-])cc1 [Compound 56, 2-[4-(n-butyl)phenylamino]-6-[(3-imidazol-1-yl)propylamino]-3-nitropyridine] | 99 | 104 | – | –
8 | Nc1ccc(Nc2nc(N3CCOCC3)ccc2[N+](=O)[O-])cc1 [Compound 64, 2-[4-(amino)phenylamino]-6-morpholino-3-nitropyridine] | 65 | 102 | – | –
9 | O=[N+]([O-])c1ccc(N2CCNCC2)nc1Nc1ccc(N2CCCCC2)c(F)c1 [Compound 233, 2-[(3-fluoro-4-piperidino)phenylamino]-6-(piperazin-1-yl)-3-nitropyridine] | – | – | 96 | 102
10 | NC1CCN(c2ccc([N+](=O)[O-])c(Nc3ccc(N4CCCCC4)c(F)c3)n2)CC1 [Compound 234, 2-[(3-fluoro-4-piperidino)phenylamino]-6-(4-aminopiperidino)-3-nitropyridine] | – | – | 100 | 94
11 | CC(C)CNc1ccc([N+](=O)[O-])c(Nc2ccc(N3CCC(O)CC3)c(F)c2)n1 [Compound 238, 2-{[3-fluoro-4-(4-hydroxypiperidino)]phenylamino}-6-(isobutylamino)-3-nitropyridine] | – | – | 75 | 106
12 | O=[N+]([O-])c1ccc(NCc2cccnc2)nc1Nc1ccc(N2CCC(O)CC2)c(F)c1 [Compound 241, 2-{[3-fluoro-4-(4-hydroxypiperidino)]phenylamino}-6-[(3-pyridyl)methylamino]-3-nitropyridine] | – | – | 87 | 100
13 | O=[N+]([O-])c1ccc(NCc2ccncc2)nc1Nc1ccc(N2CCC(O)CC2)c(F)c1 [Compound 242, 2-{[3-fluoro-4-(4-hydroxypiperidino)]phenylamino}-6-[(4-pyridyl)methylamino]-3-nitropyridine] | – | – | 93 | 114
14 | NC1CCN(c2ccc([N+](=O)[O-])c(Nc3ccc(N4CCC(O)CC4)c(F)c3)n2)CC1 [Compound 246, 2-{[3-fluoro-4-(4-hydroxypiperidino)]phenylamino}-6-(4-aminopiperidino)-3-nitropyridine] | – | – | 80 | 105
